Experimental data reported in article PMC7044277 (Nature Communications, 2020).
Where “and” joins values, the source holds several entries; their conditions need not be identical. Equal entries are not always repeated.

Assays:
Assay type in all cases: cell-based
[1] = molecular target: T1, 320 non-olfactory GPCRs (Homo sapiens, UniProt Q8IZF4)
T1 construct: expressed in transfected cells; host or cells: HTLA cells

[2] = molecular target: T2, 320 non-olfactory GPCRs (Homo sapiens, UniProt P35368)
T2 construct: expressed in transfected cells; host or cells: HTLA cells
T2 sequence (P35368 whole entry): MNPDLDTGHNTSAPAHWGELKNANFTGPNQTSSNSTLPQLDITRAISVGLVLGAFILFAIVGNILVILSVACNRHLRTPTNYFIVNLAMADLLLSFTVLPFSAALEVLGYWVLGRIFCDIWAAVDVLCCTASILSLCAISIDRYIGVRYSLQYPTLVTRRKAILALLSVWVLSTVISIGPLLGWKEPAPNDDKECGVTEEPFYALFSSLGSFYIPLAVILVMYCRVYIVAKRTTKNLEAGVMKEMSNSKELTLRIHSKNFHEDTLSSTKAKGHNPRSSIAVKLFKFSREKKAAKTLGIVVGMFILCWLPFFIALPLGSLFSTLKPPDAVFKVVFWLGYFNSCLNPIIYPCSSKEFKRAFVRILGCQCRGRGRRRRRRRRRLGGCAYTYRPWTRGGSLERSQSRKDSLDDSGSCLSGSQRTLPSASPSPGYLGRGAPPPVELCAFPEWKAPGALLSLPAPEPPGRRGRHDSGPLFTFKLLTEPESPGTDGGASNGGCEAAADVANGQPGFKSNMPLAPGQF

[3] = molecular target: T3, 320 non-olfactory GPCRs (Homo sapiens, UniProt P34995); conditions: receptor PTGER1; replicate values, Fig_4g
T3 construct: expressed in transfected cells; host or cells: HTLA cells
T3 sequence (P34995 whole entry): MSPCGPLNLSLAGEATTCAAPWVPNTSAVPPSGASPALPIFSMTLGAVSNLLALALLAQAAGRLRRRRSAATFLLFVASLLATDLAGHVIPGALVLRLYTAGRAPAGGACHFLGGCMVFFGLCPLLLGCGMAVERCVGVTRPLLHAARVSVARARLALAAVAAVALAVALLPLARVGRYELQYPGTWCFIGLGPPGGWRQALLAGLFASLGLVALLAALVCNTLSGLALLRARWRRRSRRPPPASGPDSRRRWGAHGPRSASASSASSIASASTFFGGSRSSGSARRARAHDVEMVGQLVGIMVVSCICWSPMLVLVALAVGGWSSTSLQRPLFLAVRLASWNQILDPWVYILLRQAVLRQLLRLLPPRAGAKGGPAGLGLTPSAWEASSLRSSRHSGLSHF

[4] = molecular target: T4, 320 non-olfactory GPCRs (Homo sapiens, UniProt P48146); conditions: receptor NPBW2; replicate values, Fig_4g
T4 construct: expressed in transfected cells; host or cells: HTLA cells
T4 sequence (P48146 whole entry): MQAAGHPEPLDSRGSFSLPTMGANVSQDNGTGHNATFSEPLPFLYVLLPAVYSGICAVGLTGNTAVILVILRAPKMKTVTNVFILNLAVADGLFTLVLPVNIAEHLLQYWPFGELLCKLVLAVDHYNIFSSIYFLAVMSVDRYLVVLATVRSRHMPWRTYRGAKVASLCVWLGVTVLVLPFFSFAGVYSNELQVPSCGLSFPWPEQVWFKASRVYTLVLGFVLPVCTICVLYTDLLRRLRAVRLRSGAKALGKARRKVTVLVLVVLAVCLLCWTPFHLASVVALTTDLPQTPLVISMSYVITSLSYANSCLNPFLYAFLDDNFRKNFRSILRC
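For Fold of Basal in this document: compound tested at 1 µM final concentration.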
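For GPCRome agonism screen response in this document: fold over basal response of each receptor without drug.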

T1 sequence (Q8IZF4 22-528): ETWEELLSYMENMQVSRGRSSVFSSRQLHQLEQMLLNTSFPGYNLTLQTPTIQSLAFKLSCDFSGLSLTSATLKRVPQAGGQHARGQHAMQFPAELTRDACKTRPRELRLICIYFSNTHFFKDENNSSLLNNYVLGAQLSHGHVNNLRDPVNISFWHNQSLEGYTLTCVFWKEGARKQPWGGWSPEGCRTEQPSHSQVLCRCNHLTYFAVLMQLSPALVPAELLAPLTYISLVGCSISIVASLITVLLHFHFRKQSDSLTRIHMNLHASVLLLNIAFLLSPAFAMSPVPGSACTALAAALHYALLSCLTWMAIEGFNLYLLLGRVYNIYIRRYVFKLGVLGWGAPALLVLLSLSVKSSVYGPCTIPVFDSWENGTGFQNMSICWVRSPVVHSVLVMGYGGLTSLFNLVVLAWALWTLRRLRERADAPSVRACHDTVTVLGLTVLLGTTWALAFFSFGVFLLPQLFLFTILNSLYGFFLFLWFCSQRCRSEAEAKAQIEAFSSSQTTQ

SMILES: CCOc1cccc2cc(C(C)NCC3(O)CCCCC3)oc12 (stereo not shown) [O4LE6]
- Fold of Basal [1]: 1.8988 and 1.9 and 1.379
- Fold of Basal [2]: 1.636 and 0.8834 and 1.032 and 1.027
- GPCRome agonism screen response [3]: 0.6283 and 0.5508 and 0.6804 and 0.7397
- GPCRome agonism screen response [4]: 0.5262 and 0.8272 and 1.363 and 1.562
